Data as given in US20110230477A1, “COMPOUNDS, PHARMACEUTICAL COMPOSITION AND METHODS FOR USE IN TREATING METABOLIC DISORDERS” (Euroscreen S.A., priority 2008, published 2011).

Biological target: T1, human GPR43 receptor (hGPR43) (Homo sapiens, UniProt O15552)
T1 construct: expressed in transfected cells
T1 sequence (O15552 1-330): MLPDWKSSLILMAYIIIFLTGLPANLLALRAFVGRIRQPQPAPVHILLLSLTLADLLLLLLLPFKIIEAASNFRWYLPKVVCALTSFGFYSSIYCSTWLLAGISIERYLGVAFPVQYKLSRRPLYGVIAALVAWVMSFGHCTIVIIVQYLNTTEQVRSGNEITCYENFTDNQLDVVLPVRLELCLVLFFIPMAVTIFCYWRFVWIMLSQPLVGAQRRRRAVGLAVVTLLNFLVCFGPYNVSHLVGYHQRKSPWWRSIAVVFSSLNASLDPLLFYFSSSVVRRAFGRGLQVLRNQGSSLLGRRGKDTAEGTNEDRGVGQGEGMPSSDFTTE
Assay: GTPγS binding assay (SPA method)
Type: biochemical
Conditions: membranes expressing hGPR43; assay performed in the presence of SCFA; read-out: EC50 (nM) in GTPγ35S assay
From the text: The following assay can be used for determination of GPR43 activation. When a GPCR is in its active state, either as a result of ligand binding or constitutive activation, the receptor couples to a G protein and stimulates the release of GDP and subsequent binding of GTP to the G protein. The alpha subunit of the G protein-receptor complex acts as a GTPase and slowly hydrolyses the GTP to GDP, at which point the receptor normally is deactivated. Activated receptors continue to exchange GDP for GTP. […] The assay uses the ability of GPCR to stimulate [^35S]GTPγS binding to membranes expressing the relevant receptors. The assay can, therefore, be used in the direct identification method to screen candidate compounds to endogenous or not endogenous GPCR.
Membrane extracts were prepared from cells expressing the human GPR43 receptor (hGPR43) as follows: the medium was aspirated and the cells were scraped from the plates in Ca^++ and Mg^++-free Phosphate-buffered saline (PBS). The cells were then centrifuged for 3 min at 1500 g and the pellets were resuspended in buffer A (15 mM Tris-HCl pH 7.5, 2 mM MgCl2, 0.3 mM EDTA, 1 mM EGTA) and homogenized in a glass homogenizer. […] Protein content was assayed by the Folin method.
The assay was performed in the presence of SCFA, and was used to determine the activity of the compounds of the invention.
The [^35S]GTPγS assay was incubated in 20 mM HEPES pH7.4, 100 mM NaCl, 10 μg/ml saponin, 30 mM of MgCl2, 10 μM of GDP, 5 μg membrane-expressing hGPR43, 250 μg of wheatgerm agglutinin beads (Amersham, ref: RPNQ001), a range concentration of compounds (from 30 μM to 1 nM) in a final volume of 100 μl for 30 min at room temperature. The SCFA propionate was used at 1 mM final concentration as positive control. The plates were then centrifuged for 10 minutes at 2000 rpm, incubated for 2 hours at room temperature and counted for 1 min in a scintillation counter (TopCount, PerkinElmer).

SMILES	EC50
Cc1ccc(CC(CC(=O)O)C(=O)N(C)c2nc(-c3ccccc3Cl)cs2)cc1 (stereo not drawn) [Compound 110, 4-((4-(2-chlorophenyl)thiazol-2-yl)(methyl)amino)-3-(4-methylbenzyl)-4-oxobutanoic acid]	452 nM
CN(C(=O)C(CC(=O)O)Cc1cscn1)c1nc(-c2ccccc2Cl)cs1 (stereo not drawn) [Compound 114, 4-((4-(2-chlorophenyl)thiazol-2-yl)(methyl)amino)-4-oxo-3-(thiazol-4-ylmethyl)butanoic acid]	539 nM
N#Cc1ccc(-c2csc(NC(=O)[C@@H](CC(=O)O)Cc3ccccc3)n2)cc1 [Compound 8, (R)-3-benzyl-4-(4-(4-cyanophenyl)thiazol-2-ylamino)-4-oxobutanoic acid]	563 nM
COC(=O)CCN(C(=O)[C@@H](CC(=O)O)Cc1ccccc1)c1nc(-c2ccccc2Cl)cs1 [Compound 126, (R)-3-benzyl-4-((4-(2-chlorophenyl)thiazol-2-yl)(3-methoxy-3-oxopropyl)amino)-4-oxobutanoic acid]	183 nM
COc1ncc(-c2ccc(Cl)cc2-c2csc(N(C(=O)[C@@H](CC(=O)O)CC3CCCC3)C3CC3)n2)cc1Cl [Compound 223, (R)-4-((4-(5-chloro-2-(5-chloro-6-methoxypyridin-3-yl)phenyl)thiazol-2-yl)(cyclopropyl)amino)-3-(cyclopentylmethyl)-4-oxobutanoic acid]	87 nM
CCN(C(=O)[C@@H](CC(=O)O)Cc1ccccc1)c1nc(-c2ccccc2Cl)cs1 [Compound 96, (R)-3-benzyl-4-((4-(2-chlorophenyl)thiazol-2-yl)(ethyl)amino)-4-oxobutanoic acid]	249 nM
O=C(O)C[C@@H](Cc1ccccc1)C(=O)N(c1nc(-c2cc(C(F)(F)F)ccc2Cl)cs1)C1CC1 [Compound 191, (R)-3-benzyl-4-((4-(2-chloro-5-(trifluoromethyl)phenyl)thiazol-2-yl)(cyclopropyl)amino)-4-oxobutanoic acid]	37 nM
Cc1cc(-c2csc(NC(=O)[C@@H](CC(=O)O)Cc3ccccc3)n2)c(C)s1 [Compound 102, (R)-3-benzyl-4-(4-(2,5-dimethylthiophen-3-yl)thiazol-2-ylamino)-4-oxobutanoic acid]	442 nM
COc1ncc(-c2ccc(Cl)cc2-c2csc(N(C(=O)[C@@H](CC(=O)O)CC3CCCC3)C3CC3)n2)cc1F [Compound 224, (R)-4-((4-(5-chloro-2-(5-fluoro-6-methoxypyridin-3-yl)phenyl)thiazol-2-yl)(cyclopropyl)amino)-3-(cyclopentylmethyl)-4-oxobutanoic acid]	27 nM
CN(C(=O)[C@@H](CC(=O)O)CC1CCCO1)c1nc(-c2ccccc2Cl)cs1 (stereo partly drawn) [Compound 154, (3R)-4-((4-(2-chlorophenyl)thiazol-2-yl)(methyl)amino)-4-oxo-3-((tetrahydrofuran-2-yl)methyl)butanoic acid]	832 nM
C=CCN(C(=O)[C@@H](CC(=O)O)Cc1ccccc1)c1nc(-c2ccccc2Cl)cs1 [Compound 22, (R)-4-(allyl(4-(2-chlorophenyl)thiazol-2-yl)amino)-3-benzyl-4-oxobutanoic acid]	365 nM
COc1ccc(-c2ccc(Cl)c(-c3csc(N(C)C(=O)[C@@H](CC(=O)O)Cc4ccccc4)n3)c2)cn1 [Compound 177, (R)-3-benzyl-4-((4-(2-chloro-5-(6-methoxypyridin-3-yl)phenyl)thiazol-2-yl)(methyl)amino)-4-oxobutanoic acid]	127 nM
O=C(O)/C=C\C(=O)Nc1nc(-c2ccccc2Cl)cs1 [Compound 10, (Z)-4-(4-(2-chlorophenyl)thiazol-2-ylamino)-4-oxobut-2-enoic acid]	405 nM
O=C(O)C[C@@H](Cc1ccccc1)C(=O)N(CCCO)c1nc(-c2ccccc2Cl)cs1 [Compound 156, (R)-3-benzyl-4-((4-(2-chlorophenyl)thiazol-2-yl)(3-hydroxypropyl)amino)-4-oxobutanoic acid]	867 nM
O=C(O)C[C@@H](Cc1ccccc1)C(=O)Nc1nc(-c2ccccc2Cl)cs1 [Compound 2, (R)-3-benzyl-4-(4-(2-chlorophenyl)thiazol-2-ylamino)-4-oxobutanoic acid]	273 nM
O=C(O)C[C@@H](Cc1ccccc1)C(=O)Nc1nc(-c2ccc(Cl)c(Cl)c2)cs1 [Compound 5, (R)-3-benzyl-4-(4-(3,4-dichlorophenyl)thiazol-2-ylamino)-4-oxobutanoic acid]	292 nM
CN(C(=O)[C@@H](CC(=O)O)Cc1ccccc1)c1nc(-c2cc(Cl)cc(Cl)c2Cl)cs1 [Compound 175, (R)-3-benzyl-4-(methyl(4-(2,3,5-trichlorophenyl)thiazol-2-yl)amino)-4-oxobutanoic acid]	57 nM
CN(C(=O)[C@@H](CC(=O)O)CC1CCCC1)c1nc(-c2ccccc2-c2ccc(N3CCOCC3)nc2)cs1 [Compound 171, (R)-3-(cyclopentylmethyl)-4-(methyl(4-(2-(6-morpholinopyridin-3-yl)phenyl)thiazol-2-yl)amino)-4-oxobutanoic acid]	50 nM
NC(=O)CN(C(=O)[C@@H](CC(=O)O)Cc1ccccc1)c1nc(-c2ccccc2Cl)cs1 [Compound 121, (R)-4-((2-amino-2-oxoethyl)(4-(2-chlorophenyl)thiazol-2-yl)amino)-3-benzyl-4-oxobutanoic acid]	766 nM
O=C(O)C[C@@H](Cc1ccccc1)C(=O)Nc1nc(-c2cccc(C(F)(F)F)c2)cs1 [Compound 13, (R)-3-benzyl-4-oxo-4-(4-(3-(trifluoromethyl)phenyl)thiazol-2-ylamino)butanoic acid]	875 nM
COCCN(C(=O)[C@@H](CC(=O)O)Cc1ccccc1)c1nc(-c2ccccc2Cl)cs1 [Compound 199, (R)-3-benzyl-4-((4-(2-chlorophenyl)thiazol-2-yl)(2-methoxyethyl)amino)-4-oxobutanoic acid]	1380 nM
COc1ccc(-c2ccccc2-c2csc(N(C(=O)[C@@H](CC(=O)O)Cc3ccccc3)C3CC3)n2)cn1 [Compound 178, (R)-3-benzyl-4-(cyclopropyl(4-(2-(6-methoxypyridin-3-yl)phenyl)thiazol-2-yl)amino)-4-oxobutanoic acid]	30 nM
O=C(O)C[C@@H](Cc1ccccc1)C(=O)Nc1ccc(-c2ccccc2Cl)cn1 [Compound 15, (R)-3-benzyl-4-(5-(2-chlorophenyl)pyridin-2-ylamino)-4-oxobutanoic acid]	426 nM
CN(C(=O)[C@@H](CC(=O)O)Cc1ccccc1)c1nc(-c2ccccc2-c2ccc(F)nc2)cs1 [Compound 119, (R)-3-benzyl-4-((4-(2-(6-fluoropyridin-3-yl)phenyl)thiazol-2-yl)(methyl)amino)-4-oxobutanoic acid]	421 nM
O=C(O)C1CC=CCC1C(=O)Nc1nc(-c2ccccc2Cl)cs1 (stereo not drawn) [Compound 1, 6-(4-(2-chlorophenyl)thiazol-2-ylcarbamoyl)cyclohex-3-enecarboxylic acid]	109 nM
O=C(O)C[C@@H](Cc1ccccc1)C(=O)Nc1nc(-c2ccccc2Cl)c(F)s1 [Compound 20, (R)-3-benzyl-4-(4-(2-chlorophenyl)-5-fluorothiazol-2-ylamino)-4-oxobutanoic acid]	96 nM
C[C@@H](O)CN(C(=O)[C@@H](CC(=O)O)Cc1ccccc1)c1nc(-c2ccccc2Cl)cs1 [Compound 246, (R)-3-benzyl-4-((4-(2-chlorophenyl)thiazol-2-yl)((R)-2-hydroxypropyl)amino)-4-oxobutanoic acid]	628 nM
